The record followed here is patent US11254690B2, “PTEFb inhibiting macrocyclic compounds” (BAYER AKTIENGESELLSCHAFT, priority 2017, dated 2022).

Experiment [1] deals with T1, CDK2/CycE (Homo sapiens, UniProt P24941).
T1 construct: GST; purchased ProQinase GmbH (Freiburg, Germany); host or cells: insect cells (Sf9)
Kind of experiment: CDK2/CycE high ATP kinase assay (TR-FRET, 2 mM ATP). The format is biochemical. As to conditions: Method 2b. How it is done:
2b. CDK2/CycE High ATP Kinase Assay
CDK2/CycE-inhibitory activity of compounds of the present invention at 2 mM adenosine-tri-phosphate (ATP) was quantified employing the CDK2/CycE TR-FRET (TR-FRET=Time Resolved Fluorescence Energy Transfer) assay as described in the following paragraphs.
Recombinant fusion proteins of GST and human CDK2 and of GST and human CycE, expressed in insect cells (Sf9) and purified by Glutathion-Sepharose affinity chromatography, were purchase from ProQinase GmbH (Freiburg, Germany). As substrate for the kinase reaction biotinylated peptide biotin-Ttds-YISPLKSPYKISEG (C-terminus in amid form) was used which can be purchased e.g. form the company JERINI peptide technologies (Berlin, Germany).
(§1) For the assay 50 nl of a 100 fold concentrated solution of the test compound in DMSO was pipetted into either a black low volume 384 well microtiter plate or a black 1536 well microtiter plate (both Greiner Bio-One, Frickenhausen, Germany), 2 μl of a solution of CDK2/CycE in aqueous assay buffer [50 mM Tris/HCl pH 8.0, 10 mM MgCl2, 1.0 mM dithiothreitol, 0.1 mM sodium ortho-vanadate, 0.01% (v/v) Nonidet-P40 (Sigma)] were added and the mixture was incubated for 15 min at 22° C. to allow pre-binding of the test compounds to the enzyme before the start of the kinase reaction. […] The concentration of CDK2/CycE was adjusted depending of the activity of the enzyme lot and was chosen appropriate to have the assay in the linear range, typical concentrations were about 10 ng/ml. The reaction was stopped by the addition of 3 μl of a solution of TR-FRET detection reagents (0.333 μM streptavidine-XL665 [Cisbio Bioassays, Codolet, France] and 1.67 nM anti-RB(pSer807/pSer811)-antibody from BD Pharmingen [#558389] and 2 nM LANCE EU-W1024 labeled anti-mouse IgG antibody [Perkin-Elmer, product no. AD0077, as an alternative a Terbium-cryptate-labeled anti-mouse IgG antibody from Cisbio Bioassays can be used]) in an aqueous EDTA-solution (167 mM EDTA, 0.2% (w/v) bovine serum albumin in 100 mM HEPES pH 7.5).
(§2) The resulting mixture was incubated 1 h at 22° C. to allow the formation of complex between the phosphorylated biotinylated peptide and the detection reagents. Subsequently the amount of phosphorylated substrate was evaluated by measurement of the resonance energy transfer from the Eu-chelate to the streptavidine-XL. Therefore, the fluorescence emissions at 620 nm and 665 nm after excitation at 350 nm was measured in a TR-FRET reader, e.g. a Pherastar (BMG Labtechnologies, Offenburg, Germany) or a Viewlux (Perkin-Elmer). The ratio of the emissions at 665 nm and at […] was taken as the measure for the amount of phosphorylated substrate. The data were normalised (enzyme reaction without inhibitor=0% inhibition, all other assay components but no enzyme=100% inhibition).
For orientation: Time-resolved FRET reads energy transfer from a long-lived donor to a nearby acceptor.

Experiment [2] concerns the target T2, CDK9/CycT1 (Homo sapiens, UniProt P50750).
T2 construct: Recombinant full-length His-tagged human CDK9 and CycT1; His; purchased Life Technologies PV4131; host or cells: insect cells
The experiment in a line: CDK9/CycT1 high ATP kinase assay (TR-FRET, 2 mM ATP). The format is biochemical. As to conditions: for IC50: 2 mM ATP, Method 1b, lower limit for IC50s about 1-2 nM; for Selectivity high ATP CDK9 over high ATP CDK2: IC50 (high ATP CDK2)/IC50 (high ATP CDK9): ratio from Methods 1b and 2b, minimal values for IC50s near the assay limit. Here is the method:
1b. CDK9/CycT1 High ATP Kinase Assay
CDK9/CycT1-inhibitory activity of compounds of the present invention at a high ATP concentration after preincubation of enzyme and test compounds was quantified employing the CDK9/CycT1 TR-FRET assay as described in the following paragraphs.
Recombinant full-length His-tagged human CDK9 and CycT1, expressed in insect cells and purified by Ni-NTA affinity chromatography, were purchased from Life Technologies (Cat. No PV4131). As substrate for the kinase reaction biotinylated peptide biotin-Ttds-YISPLKSPYKISEG (C-terminus in amide form) was used which can be purchased e.g. form the company JERINI peptide technologies (Berlin, Germany).
as §1, with “CDK9/CycT1” for “CDK2/CycE”, “in the range of 0.5 μg/ml.” for “about 10 ng/ml.”, “(0.33” for “(0.333”, “AD0077])” for “AD0077, as an alternative a Terbium-cryptate-labeled anti-mouse IgG antibody from Cisbio Bioassays can be used])”
as §2

Where only a bound is given, the exact number is not on record here.

T2 sequence (P50750 whole entry): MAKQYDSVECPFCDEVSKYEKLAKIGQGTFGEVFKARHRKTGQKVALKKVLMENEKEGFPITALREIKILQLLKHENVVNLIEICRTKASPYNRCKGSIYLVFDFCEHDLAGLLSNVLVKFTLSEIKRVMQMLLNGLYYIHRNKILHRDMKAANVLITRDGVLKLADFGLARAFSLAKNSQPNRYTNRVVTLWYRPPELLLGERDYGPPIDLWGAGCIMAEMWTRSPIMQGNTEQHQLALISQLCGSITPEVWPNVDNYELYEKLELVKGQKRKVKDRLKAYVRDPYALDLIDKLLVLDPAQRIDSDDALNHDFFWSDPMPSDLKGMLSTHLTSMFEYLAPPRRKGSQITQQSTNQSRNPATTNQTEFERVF
T2 sequence (O60563 whole entry partner): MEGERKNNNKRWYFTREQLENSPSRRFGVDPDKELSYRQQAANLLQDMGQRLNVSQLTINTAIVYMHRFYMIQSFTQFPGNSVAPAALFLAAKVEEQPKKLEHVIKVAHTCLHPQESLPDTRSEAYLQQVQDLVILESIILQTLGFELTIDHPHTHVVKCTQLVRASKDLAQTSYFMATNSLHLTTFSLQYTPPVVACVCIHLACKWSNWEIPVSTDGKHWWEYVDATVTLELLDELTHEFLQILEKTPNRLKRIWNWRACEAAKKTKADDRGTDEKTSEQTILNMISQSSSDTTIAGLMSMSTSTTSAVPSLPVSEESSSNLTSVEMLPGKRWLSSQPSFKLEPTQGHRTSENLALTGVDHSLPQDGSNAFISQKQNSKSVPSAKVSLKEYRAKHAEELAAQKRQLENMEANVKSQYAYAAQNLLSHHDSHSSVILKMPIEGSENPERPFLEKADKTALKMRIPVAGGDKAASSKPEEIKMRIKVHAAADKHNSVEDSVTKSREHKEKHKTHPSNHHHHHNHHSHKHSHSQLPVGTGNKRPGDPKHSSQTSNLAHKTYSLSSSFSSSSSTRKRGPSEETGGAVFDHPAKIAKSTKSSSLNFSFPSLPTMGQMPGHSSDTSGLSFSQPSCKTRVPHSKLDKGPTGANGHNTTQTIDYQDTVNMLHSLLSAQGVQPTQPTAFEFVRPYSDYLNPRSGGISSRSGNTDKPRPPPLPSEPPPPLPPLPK

Take `CSCc1cc2nc(c1)OC(C)CCCCCOc1cc(ccc1F)-c1cc(ncc1F)N2` (single isomer, unassigned) [Example 24, 3,22-difluoro-14-methyl-10-[(methylsulfanyl)methyl]-13,20-dioxa-5,7,26-triazatetracyclo[19.3.1.1^2,6.1^8,12]heptacosa-1(25),2(27),3,5,8(26),9,11,21,23-nonaene]: in experiment [1], the IC50 (in general, the concentration that inhibits the measured activity by half) is above 20000 nM. Also, in experiment [2], the IC50 was determined as 68 nM and the “Selectivity high ATP CDK9 over high ATP CDK2: IC50 (high ATP CDK2)/IC50 (high ATP CDK9)” value (“Selectivity high ATP CDK9” for short) is above 294.
The matching figures for `CSCc1cc2nc(c1)OC(C)CCCCOc1cc(ccc1F)-c1cc(ncc1F)N2` (single isomer, unassigned) [Example 20, 3,21-difluoro-14-methyl-10-[(methylsulfanyl)methyl]-13,19-dioxa-5,7,25-triazatetracyclo[18.3.1.1^2,6.1^8,12]hexacosa-1(24),2(26),3,5,8(25),9,11,20,22-nonaene]: 12600 nM, 23 nM and 548.
The matching figures for `CSCc1cc2nc(c1)OC(C)CCCCCOc1cc(ccc1F)-c1cc(ncc1F)N2` (racemic) [Example 23, (rac)-3,22-difluoro-14-methyl-10-[(methylsulfanyl)methyl]-13,20-dioxa-5,7,26-triazatetracyclo[19.3.1.1^2,6.1^8,12]heptacosa-1(25),2(27),3,5,8(26),9,11,21,23-nonaene]: above 20000 nM, 67 nM and above 298.
The like results for `CSCc1cc2nc(c1)OC(C)CCCCOc1cc(ccc1F)-c1cc(ncc1F)N2` (single isomer, unassigned) [Example 19, 3,21-difluoro-14-methyl-10-[(methylsulfanyl)methyl]-13,19-dioxa-5,7,25-triazatetracyclo[18.3.1.1^2,6.1^8,12]hexacosa-1(24),2(26),3,5,8(25),9,11,20,22-nonaene] were, in that order, above 20000 nM, 138 nM and above 145.
`CSCc1cc2nc(c1)OC(C)CCCCOc1cc(ccc1F)-c1cc(ncc1F)N2` (racemic) [Example 18, (rac)-3,21-difluoro-14-methyl-10-[(methylsulfanyl)methyl]-13,19-dioxa-5,7,25-triazatetracyclo[18.3.1.1^2,6.1^8,12]hexacosa-1(24),2(26),3,5,8(25),9,11,20,22-nonaene] registered an IC50 in experiment [1] above 20000 nM. For the same molecule, in experiment [2], the IC50 amounted to 32 nM and the “Selectivity high ATP CDK9” value is reported as above 625.
The matching figures for `CSCc1cc2nc(c1)OC(C)CCCCCOc1cc(ccc1F)-c1cc(ncc1F)N2` (single isomer, unassigned) [Example 25, 3,22-difluoro-14-methyl-10-[(methylsulfanyl)methyl]-13,20-dioxa-5,7,26-triazatetracyclo[19.3.1.1^2,6.1^8,12]heptacosa-1(25),2(27),3,5,8(26),9,11,21,23-nonaene]: above 20000 nM, 93 nM and above 215.
The matching figures for `CSCc1cc2nc(c1)OC(C)CCCOc1cc(ccc1F)-c1cc(ncc1F)N2` (single isomer, unassigned) [Example 13, 3,20-difluoro-14-methyl-10-[(methylsulfanyl)methyl]-13,18-dioxa-5,7,24-triazatetracyclo[17.3.1.1^2,6.1^8,12]pentacosa-1(23),2(25),3,5,8(24),9,11,19,21-nonaene]: 711 nM, 4 nM and 178.
Molecule `CSCc1cc2nc(c1)OC(C)CCCOc1cc(ccc1F)-c1cc(ncc1F)N2` (single isomer, unassigned) [Example 12, 3,20-difluoro-14-methyl-10-[(methylsulfanyl)methyl]-13,18-dioxa-5,7,24-triazatetracyclo[17.3.1.1^2,6.1^8,12]pentacosa-1(23),2(25),3,5,8(24),9,11,19,21-nonaene] returned an IC50 in experiment [1] of 6450 nM. Besides, in experiment [2], the half-inhibitory concentration (IC50) amounted to 4 nM and the “Selectivity high ATP CDK9” value is 1613.
